From PubChem BioAssay (NCI)
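How tested: cells in 96-well plates exposed to compound for 48 hours at five concentrations. At the GI50, growth is halved. TGI: total growth inhibition.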

What was measured:
Experiment in all cases: DTP human tumour cell line panel, 48 h
NCI-H23 lung = tested on: NCI-H23 lung
NCI-H460 lung = tested on: NCI-H460 lung
NCI-H522 lung = tested on: NCI-H522 lung
NCI/ADR-RES ovarian = tested on: NCI/ADR-RES ovarian
OVCAR-3 ovarian = tested on: OVCAR-3 ovarian
OVCAR-4 ovarian = tested on: OVCAR-4 ovarian
OVCAR-5 ovarian = tested on: OVCAR-5 ovarian
OVCAR-8 ovarian = tested on: OVCAR-8 ovarian
PC-3 prostate = tested on: PC-3 prostate
RPMI-8226 leukemia = tested on: RPMI-8226 leukemia
RXF 393 renal = tested on: RXF 393 renal
SF-268 CNS = tested on: SF-268 CNS
SF-295 CNS = tested on: SF-295 CNS
SF-539 CNS = tested on: SF-539 CNS
SK-MEL-2 melanoma = tested on: SK-MEL-2 melanoma
SK-MEL-28 melanoma = tested on: SK-MEL-28 melanoma
SK-MEL-5 melanoma = tested on: SK-MEL-5 melanoma
SK-OV-3 ovarian = tested on: SK-OV-3 ovarian
SN12C renal = tested on: SN12C renal
SNB-19 CNS = tested on: SNB-19 CNS
SNB-75 CNS = tested on: SNB-75 CNS
SW-620 colon = tested on: SW-620 colon
T-47D breast = tested on: T-47D breast
U251 CNS = tested on: U251 CNS
UACC-257 melanoma = tested on: UACC-257 melanoma
UACC-62 melanoma = tested on: UACC-62 melanoma
UO-31 renal = tested on: UO-31 renal

c1ccc(N2CCN(CN3CCN(c4ccccc4)C3)C2)cc1
GI50 (NCI-H23 lung): > 100 µM | TGI (NCI-H23 lung): > 100 µM | GI50 (NCI-H460 lung): > 100 µM | TGI (NCI-H460 lung): > 100 µM | GI50 (NCI-H522 lung): > 100 µM | TGI (NCI-H522 lung): > 100 µM | GI50 (NCI/ADR-RES ovarian): > 100 µM | TGI (NCI/ADR-RES ovarian): > 100 µM | GI50 (OVCAR-3 ovarian): > 100 µM | TGI (OVCAR-3 ovarian): > 100 µM | GI50 (OVCAR-4 ovarian): > 100 µM | TGI (OVCAR-4 ovarian): > 100 µM | GI50 (OVCAR-5 ovarian): > 100 µM | TGI (OVCAR-5 ovarian): > 100 µM | GI50 (OVCAR-8 ovarian): > 100 µM | TGI (OVCAR-8 ovarian): > 100 µM | GI50 (PC-3 prostate): > 100 µM | TGI (PC-3 prostate): > 100 µM | GI50 (RPMI-8226 leukemia): 60.9 µM | TGI (RPMI-8226 leukemia): > 100 µM | GI50 (RXF 393 renal): > 100 µM | TGI (RXF 393 renal): > 100 µM | GI50 (SF-268 CNS): > 100 µM | TGI (SF-268 CNS): > 100 µM | GI50 (SF-295 CNS): > 100 µM | TGI (SF-295 CNS): > 100 µM | GI50 (SF-539 CNS): > 100 µM | TGI (SF-539 CNS): > 100 µM | GI50 (SK-MEL-2 melanoma): > 100 µM | TGI (SK-MEL-2 melanoma): > 100 µM | GI50 (SK-MEL-28 melanoma): > 100 µM | TGI (SK-MEL-28 melanoma): > 100 µM | GI50 (SK-MEL-5 melanoma): > 100 µM | TGI (SK-MEL-5 melanoma): > 100 µM | GI50 (SK-OV-3 ovarian): > 100 µM | TGI (SK-OV-3 ovarian): > 100 µM | GI50 (SN12C renal): > 100 µM | TGI (SN12C renal): > 100 µM | GI50 (SNB-19 CNS): > 100 µM | TGI (SNB-19 CNS): > 100 µM | GI50 (SNB-75 CNS): > 100 µM | TGI (SNB-75 CNS): > 100 µM | GI50 (SW-620 colon): 60.7 µM | TGI (SW-620 colon): > 100 µM | GI50 (T-47D breast): > 100 µM | TGI (T-47D breast): > 100 µM | GI50 (U251 CNS): > 100 µM | TGI (U251 CNS): > 100 µM | GI50 (UACC-257 melanoma): > 100 µM | TGI (UACC-257 melanoma): > 100 µM | GI50 (UACC-62 melanoma): > 100 µM | TGI (UACC-62 melanoma): > 100 µM | GI50 (UO-31 renal): > 100 µM | TGI (UO-31 renal): > 100 µM
